ChEMBL document CHEMBL1141051, “Antiviral 6-amino-quinolones: molecular basis for potency and selectivity” (Bioorg Med Chem Lett, 2005)

Tests used:
Nucleic Acid [1] = experiment: Effective concentration required for binding to mutant loopless TAR using electrophoretic mobility shift assays done at 25 degree C with pH 7.5; type: nucleic-acid assay, Human immunodeficiency virus 1
[2] = target: T1, Protein Tat (Human immunodeficiency virus type 1 group M subtype B (isolate HXB2)(HIV-1)) (UniProt P04608); experiment: Binding constant (K) against Tat/TAR using 1:1 quinolone/Mg2+ complex done at 25 degree C with pH 7.5; conditions: Human immunodeficiency virus 1
T1 sequence (whole entry): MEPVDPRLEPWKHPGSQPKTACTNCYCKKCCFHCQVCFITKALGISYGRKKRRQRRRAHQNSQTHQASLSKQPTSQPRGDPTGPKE

Nucleic Acid [3] = experiment: Effective concentration required for binding to tRNA using electrophoretic mobility shift assays done at 25 degree C with pH 7.5; type: nucleic-acid assay, Human immunodeficiency virus 1
Nucleic Acid [4] = experiment: Effective concentration required for binding to wild-type TAR using electrophoretic mobility shift assays done at 25 degree C with pH 7.5; type: nucleic-acid assay, Human immunodeficiency virus 1
Nucleic Acid [5] = experiment: Effective concentration required for binding to mutant double stranded TAR using electrophoretic mobility shift assays done at 25 degree C with pH 7.5; type: nucleic-acid assay, Human immunodeficiency virus 1

Cn1cc(C(=O)O)c(=O)c2cc(N)c(N3CCN(c4ccccn4)CC3)cc21
EC50 (Nucleic Acid [1]): 320 nM
K [2]: 6650 M⁻¹
EC50 (Nucleic Acid [3]): > 50000 nM
EC50 (Nucleic Acid [4]): 210 nM

O=C(O)c1cn(C2CC2)c2cc(N3CCNCC3)c(F)cc2c1=O
K [2]: 790 M⁻¹

Nc1cc2c(=O)c(C(=O)O)cn(C3CC3)c2cc1N1CCN(c2cccc(C(F)(F)F)c2)CC1
EC50 (Nucleic Acid [5]): 50 nM
K [2]: 13600 M⁻¹
EC50 (Nucleic Acid [3]): 130 nM
EC50 (Nucleic Acid [4]): 190 nM
